PMC5653977 (EMBO Molecular Medicine, 2017)
Structures can show the parent of a compound that is named as a salt.

Tested on: NRG1-ERBB4 signaling
Assay: Nrg1-ERBB4-PIK3R1 split TEV co-culture compound screen of the NIH Clinical Collection
Format: cell-based, human
[1] = NIH Clinical Collection NCC-003 raw data, compounds ranked by Z-score, 'flagged' given instead of a Z-score
[2] = compound screen of the NIH Clinical Collection, sheet raw data NCC-003, compounds ranked by Z-score
[3] = compounds at 10 μM, 24 h, PC12 split TEV assay cells co-cultured with Nrg1-expressing PC12 cells, analysed with cellHTS2

C=CCc1ccc(O)c(-c2ccc(O)c(CC=C)c2)c1 [HONOKIOL]
Z-SCORE [1]: flagged

CC(CCCCC(=O)Nc1ccc(C(F)(F)F)cc1)NCCc1cnc[nH]1 (centres unmarked) [HTMT]
Z-SCORE [2]: -0.18

C/C=C1\[C@H]2C=C(C)C[C@]1(N)c1ccc(=O)[nH]c1C2 [HUPERZINE A]
Z-SCORE [2]: -0.3

C[C@]12CCC(=O)C=C1CC[C@@H]1[C@@H]2[C@@H](O)C[C@@]2(C)[C@H]1CC[C@]2(O)C(=O)COC(=O)CCC(=O)O [HYDROCORTISONE HEMISUCCINATE, reference compound]
Z-SCORE [3]: -1.64

C[C@]12CCC(=O)C=C1CC[C@@H]1[C@@H]2[C@@H](O)C[C@@]2(C)[C@H]1CC[C@]2(O)C(=O)CO [HYDROCORTISONE, reference compound]
Z-SCORE [3]: -1.61

NS(=O)(=O)c1cc2c(cc1C(F)(F)F)NCNS2(=O)=O [HYDROFLUMETHIAZIDE, reference compound]
Z-SCORE [3]: -0.47

O=c1c(O[C@@H]2O[C@H](CO)[C@H](O)[C@H](O)[C@H]2O)c(-c2ccc(O)c(O)c2)oc2cc(O)cc(O)c12 [HYPEROSIDE]
Z-SCORE [2]: 0.68

O=C(CCCN1CCC(O)(c2ccc(Cl)cc2)CC1)c1ccc(F)cc1 [Haloperidol]
Z-SCORE [2]: -0.98

Oc1c(Cl)cc(Cl)c(Cl)c1Cc1c(O)c(Cl)cc(Cl)c1Cl [Hexachlorophene, reference compound]
Z-SCORE [3]: flagged

COc1ccc(CCN)cc1OC [Homoveratrylamine]
Z-SCORE [2]: -0.37

NS(=O)(=O)c1cc2c(cc1Cl)NCNS2(=O)=O [Hydrochlorothiazide, reference compound]
Z-SCORE [3]: -0.03

CC(C)Cc1ccc(C(C)C(=O)O)cc1 (centres unmarked) [IBUPROFEN, reference compound]
Z-SCORE [3]: 0.27

COc1ccc(-c2oc3c(CC=C(C)C)c(O[C@@H]4O[C@H](CO)[C@@H](O)[C@H](O)[C@H]4O)cc(O)c3c(=O)c2O[C@@H]2O[C@@H](C)[C@H](O)[C@@H](O)[C@H]2O)cc1 [ICARIIN]
Z-SCORE [2]: -0.37

CC(=O)[C@]1(O)Cc2c(O)c3c(c(O)c2[C@@H](O[C@H]2C[C@H](N)[C@H](O)[C@H](C)O2)C1)C(=O)c1ccccc1C3=O [IDARUBICIN HCl]
Z-SCORE [1]: flagged

COC1=C(OC)C(=O)C(CCCCCCCCCCO)=C(C)C1=O [IDEBENONE]
Z-SCORE [2]: 2.79

CC1Cc2ccccc2N1NC(=O)c1ccc(Cl)c(S(N)(=O)=O)c1 (centres unmarked) [INDAPAMIDE, reference compound]
Z-SCORE [3]: 0.07

CC(C)(C)NC(=O)[C@@H]1CN(Cc2cccnc2)CCN1C[C@@H](O)C[C@@H](Cc1ccccc1)C(=O)N[C@H]1c2ccccc2C[C@H]1O [INDINAVIR SULPHATE]
Z-SCORE [2]: 0.35

CC(C)[N+]1(C)[C@@H]2CC[C@H]1C[C@@H](OC(=O)C(CO)c1ccccc1)C2.O.[Br-] (some centres unmarked) [IPRATROPIUM BROMIDE MONOHYDRATE, reference compound]
Z-SCORE [3]: 0.31

CC(C)Oc1ccc2c(=O)c(-c3ccccc3)coc2c1 [IPRIFLAVONE]
Z-SCORE [2]: 1.41

Nc1nc(N)nc(-c2cc(Cl)ccc2Cl)n1 [IRSOGLADINE MALEATE]
Z-SCORE [1]: -1.2

COC(=O)C1=C(C)NC(C)=C(C(=O)OC(C)C)C1c1cccc2nonc12 (centres unmarked) [ISRADIPINE]
Z-SCORE [1]: -1.94

O=C([O-])C[C@H](O)C[C@H](O)/C=C/c1c(C2CC2)nc2ccccc2c1-c1ccc(F)cc1.O=C([O-])C[C@H](O)C[C@H](O)/C=C/c1c(C2CC2)nc2ccccc2c1-c1ccc(F)cc1.[Ca+2] [ITAVASTATIN Ca]
Z-SCORE [1]: flagged

COc1ccc(C(=O)NCc2ccc(OCCN(C)C)cc2)cc1OC.Cl [ITOPRIDE HCl]
Z-SCORE [2]: 1.68

CC(C(O)c1ccc(O)cc1)N1CCC(Cc2ccccc2)CC1 (centres unmarked) [Ifenprodil]
Z-SCORE [2]: 1.07

CN(C)C(=O)C(CCN1CCC(O)(c2ccc(Cl)cc2)CC1)(c1ccccc1)c1ccccc1 [Imodium, reference compound]
Z-SCORE [3]: -0.18

CNC1CC(c2ccc(Cl)c(Cl)c2)c2ccccc21 (centres unmarked) [Indatraline]
Z-SCORE [2]: 0.28

CC(C)NCC(O)COc1cccc2ccccc12 (centres unmarked) [Inderal, reference compound]
Z-SCORE [3]: -0.81

O=C1Nc2ccccc2/C1=C1/Nc2ccccc2C1=O [Indirubin]
Z-SCORE [2]: 0.67

COc1ccc2c(c1)c(CC(=O)O)c(C)n2C(=O)c1ccc(Cl)cc1 [Indomethacin]
Z-SCORE [2]: 0.08

NCCc1ccc(O)c(O)c1 [Intropin, reference compound]
Z-SCORE [3]: 0.13

CCCCC1=NC2(CCCC2)C(=O)N1Cc1ccc(-c2ccccc2-c2nnn[nH]2)cc1 [Irbesartan, reference compound]
Z-SCORE [2]: 4.26
Z-SCORE [3]: 4.26

NNC(=O)c1ccncc1 [Isoniazid, reference compound]
Z-SCORE [3]: -0.38

O=c1c(O[C@@H]2O[C@H](CO)[C@@H](O)[C@H](O)[C@H]2O)c(-c2ccc(O)c(O)c2)oc2cc(O)cc(O)c12 [Isoquercitrin]
Z-SCORE [2]: 0.55

CC1=C(/C=C/C(C)=C/C=C/C(C)=C\C(=O)O)C(C)(C)CCC1 [Isotretinoin, reference compound]
Z-SCORE [3]: -0.41

CC(C)NCC(O)c1ccc(O)c(O)c1 (centres unmarked) [Isuprel, reference compound]
Z-SCORE [3]: -0.93

CCC(C)n1ncn(-c2ccc(N3CCN(c4ccc(OCC5COC(Cn6cncn6)(c6ccc(Cl)cc6Cl)O5)cc4)CC3)cc2)c1=O (centres unmarked) [Itraconazole, reference compound]
Z-SCORE [1]: -3.6
Z-SCORE [3]: -3.6

CC(C(=O)O)c1cccc(C(=O)c2ccccc2)c1 (centres unmarked) [KETOPROFEN, reference compound]
Z-SCORE [3]: 0.15

CN1CCC(=C2c3ccccc3CC(=O)c3sccc32)CC1 [KETOTIFEN FUMARATE]
Z-SCORE [2]: -0.37

CO[C@@H]1[C@@H](O[C@@H]2O[C@H](C)[C@@H](O[C@H]3C[C@@](C)(O)[C@@H](OC(=O)CC(C)C)[C@H](C)O3)[C@H](N(C)C)[C@H]2O)[C@@H](CC=O)C[C@@H](C)[C@@H](O)/C=C/C=C/C[C@@H](C)OC(=O)C[C@H]1O [KITASAMYCIN]
Z-SCORE [2]: 1.6

OC(CCN1CCCC1)(c1ccccc1)C1CCCCC1 (centres unmarked) [Kemadrin, reference compound]
Z-SCORE [3]: -0.51

CC(=O)N1CCN(c2ccc(OCC3COC(Cn4ccnc4)(c4ccc(Cl)cc4Cl)O3)cc2)CC1 (centres unmarked) [Ketoconazole]
Z-SCORE [2]: -1.1

O=C(c1ccccc1)c1ccc2n1CCC2C(=O)O (centres unmarked) [Ketorolac tromethamine]
Z-SCORE [2]: -0.4

N[C@@H](Cc1cc(I)c(Oc2cc(I)c(O)c(I)c2)c(I)c1)C(=O)O [L-THYROXINE, reference compound]
Z-SCORE [3]: -0.07

CC(CCc1ccccc1)NCC(O)c1ccc(O)c(C(N)=O)c1 (centres unmarked) [LABETALOL HYDROCHLORIDE, reference compound]
Z-SCORE [3]: -1.04

CCOC(=O)C1=C(C)NC(C)=C(C(=O)OCC)C1c1ccccc1/C=C/C(=O)OC(C)(C)C [LACIDIPINE]
Z-SCORE [2]: -0.35

Nc1ccn([C@@H]2CS[C@H](CO)O2)c(=O)n1 [LAMIVUDINE, reference compound]
Z-SCORE [2]: 0.14
Z-SCORE [3]: 0.33

Nc1nnc(-c2cccc(Cl)c2Cl)c(N)n1 [LAMOTRIGINE]
Z-SCORE [2]: 0.3

Cc1c(OCC(F)(F)F)ccnc1C[S+]([O-])c1nc2ccccc2[nH]1 (centres unmarked) [LANSOPRAZOLE]
Z-SCORE [1]: -1.16

CC(C)OC(=O)CCC/C=C\C[C@@H]1[C@@H](CC[C@@H](O)CCc2ccccc2)[C@H](O)C[C@@H]1O [LATANOPROST]
Z-SCORE [2]: -0.3

N#Cc1ccc(C(c2ccc(C#N)cc2)n2cncn2)cc1 [LETROZOLE]
Z-SCORE [2]: -1.06
